From patent US20150080305A1, “APPLICATION OF INITIAL DOSES OF LHRH ANALOGUES AND MAINTENANCE DOSES OF LHRH ANTAGONISTS FOR THE TREATMENT OF HORMONE-DEPENDENT CANCERS AND CORRESPONDING PHARMACEUTICAL KITS” (AETERNA ZENTARIS GmbH, priority 2006, published 2015)
Square brackets hold non-standard residues; d marks the D form. Peptide text beside a SMILES is read from it. dPhe(4-Cl) = N[C@H](Cc1ccc(Cl)cc1)C(=O)O; d2Nal = N[C@H](Cc1ccc2ccccc2c1)C(=O)O; dCit = NC(=O)NCCC[C@@H](N)C(=O)O; d3Pal = N[C@H](Cc1cccnc1)C(=O)O

How the values were obtained:
[1] = tested on: testosterone levels; experiment: Testosterone levels in prostate cancer patients under initial/maintenance dose regimen; format: in vivo, human; settings: for testosterone levels during first period: prostate cancer patients
Protocol: (§1) 130 mg ozarelix is given as a single monthly initial dose per i.m. injection every 4 weeks to patients suffering from prostate cancer for a first period of 3 months. […] Subsequently, patients are treated with single monthly maintenance doses of 30 mg ozarelix given per i.m. injection over a period of 6 months. […] The treatment scheme is then repeated continuously (chronic treatment).
(§2) […] ozarelix is given as a single initial dose per i.m. injection once every 3 months to patients suffering from prostate cancer for a first period of 3 to 6 months. […] Subsequently, patients are treated with single monthly maintenance doses of 40 mg ozarelix given per i.m. injection over a period of 6 months. […] The treatment scheme is then repeated continuously (chronic treatment).
(§3) 3.75 mg leuprorelin (leuprolide) are given as a single monthly initial dose per i.m. injection every 4 weeks to patients suffering from prostate cancer for a first period of 6 months. […] Subsequently, patients are treated with single monthly maintenance doses of 20 mg ozarelix given per i.m. injection over a period of 9 months. […] The treatment scheme is then repeated continuously (chronic treatment).
(§4) 11.25 mg leuprorelin (leuprolide) are given as a single initial dose per i.m. injection once every three months to patients suffering from prostate cancer for a first period of 3 months. […] Subsequently, patients are treated with single monthly maintenance doses of 50 mg ozarelix given per i.m. injection over a period of 3 months. […] The treatment scheme is then repeated continuously (chronic treatment).

[2] = tested on: PSA levels; experiment: PSA levels in prostate cancer patients under initial/maintenance dose regimen; format: in vivo, human; settings: for PSA levels decrease during first period: prostate cancer patients
Protocol: as §1, §2, §3, §4

[3] = tested on: hormone concentration; settings: volunteer tests; cited from earlier work
[4] = Example 3: 3.75 mg single monthly initial dose i.m. every 4 weeks, first period of 6 months
[5] = Example 4: 11.25 mg single initial dose i.m. once every three months, first period of 3 months
[6] = Example 1: 130 mg single monthly initial dose i.m. every 4 weeks, first period of 3 months
[7] = Example 1: single monthly maintenance doses of 30 mg i.m. over 6 months, after 130 mg ozarelix initial doses
[8] = Example 2: 00 mg single initial dose i.m. once every 3 months, first period of 3 to 6 months
[9] = Example 2: single monthly maintenance doses of 40 mg i.m. over 6 months, after ozarelix initial doses
[10] = Example 3: single monthly maintenance doses of 20 mg i.m. over 9 months, after 3.75 mg leuprorelin initial doses
[11] = Example 4: single monthly maintenance doses of 50 mg i.m. over 3 months, after 11.25 mg leuprorelin initial dose

CCNC(=O)[C@@H]1CCCN1C(=O)[C@H](CCCNC(=N)N)NC(=O)[C@H](CC(C)C)NC(=O)[C@@H](CC(C)C)NC(=O)[C@H](Cc1ccc(O)cc1)NC(=O)[C@H](CO)NC(=O)[C@H](Cc1c[nH]c2ccccc12)NC(=O)[C@H](Cc1c[nH]cn1)NC(=O)[C@@H]1CCC(=O)N1 [leuprorelin, reference compound]
testosterone levels during first period [1, 4]: quickly reach castration level | testosterone levels during first period [1, 5]: quickly reach castration level | PSA levels decrease during first period [2, 4]: up to 95% | PSA levels decrease during first period [2, 5]: up to 95%

ozarelix
testosterone levels during first period [1, 6]: quickly reach castration level | testosterone levels during second period [1, 7]: above 0.5 ng/mL | testosterone levels during first period [1, 8]: quickly reach castration level | testosterone levels during second period [1, 9]: above 0.5 ng/mL | testosterone levels during second period [1, 10]: above 0.5 ng/mL | testosterone levels during second period [1, 11]: above 0.5 ng/mL | PSA levels decrease during first period [2, 6]: up to 95% | PSA levels during second period [2, 7]: remain stably low | PSA levels decrease during first period [2, 8]: up to 95% | PSA levels during second period [2, 9]: remain stably low | PSA levels during second period [2, 10]: remain stably low | PSA levels during second period [2, 11]: remain stably low

CC(=O)N[C@H](Cc1ccc2ccccc2c1)C(=O)N[C@H](Cc1ccc(Cl)cc1)C(=O)N[C@H](Cc1cccnc1)C(=O)N[C@@H](CO)C(=O)N[C@@H](Cc1ccc(O)cc1)C(=O)N[C@H](CCCNC(N)=O)C(=O)N[C@@H](CC(C)C)C(=O)N[C@@H](CCCNC(=N)N)C(=O)N1CCC[C@H]1C(=O)N[C@H](C)C(N)=O [cetrorelix] (Ac-[d2Nal][dPhe(4-Cl)][d3Pal]SY[dCit]LRP[dA]-NH2)
dose necessary for complete suppression of the hormone concentration to castration level [3]: 10 mg daily
